# In patent publication US10597388B2, “Pyridazinone herbicides” (FMC CORPORATION, priority 2014, dated 2020):
# How the values were obtained:
# Assay in all cases: Test D controlled growth environment herbicide test, pre- and postemergence
# Type in all cases: in vivo
# [1] = tested on: ryegrass, Italian (Italian ryegrass, Lolium multiflorum)
# Description: (§1) Seeds of plant species selected from bluegrass (annual bluegrass, Poa annua), blackgrass (Alopecurus myosuroides), Canada thistle (Cirsium arvense), canarygrass (Phalaris minor), chickweed (common chickweed, Stellaria media), geranium, cutleaf (cutleaf geranium, Geranium dissectum), galium (catchweed bedstraw, Galium aparine), bromegrass, downy (downy bromegrass, Bromus tectorum), field poppy (Papaver rhoeas), field violet (Viola arvensis), foxtail, green (green foxtail, Setaria viridis), deadnettle (henbit deadnettle, Lamium amplexicaule), ryegrass, Italian (Italian ryegrass, Lolium multiflorum), kochia (Kochia scoparia), lambsquarters (Chenopodium album), oilseed rape (Brassica napus), pigweed (Amaranthus retroflexus), chamomile (scentless chamomile, Matricaria inodora), Russian thistle (Salsola kali), speedwell (bird's-eye speedwell, Veronica persica), barley, spring (spring barley, Hordeum vulgare), wheat, spring (spring wheat, Triticum aestivum), buckwheat, wild (wild buckwheat, Polygonum convolvulus), mustard, wild (wild mustard, Sinapis arvensis), oat, wild (wild oat, Avena fatua), radish, wild (wild radish, Raphanus raphanistrum), windgrass (Apera spica-venti), barley, winter (winter barley, Hordeum vulgare), and wheat, winter (winter wheat, Triticum aestivum) were planted into a silt loam soil and treated preemergence with test chemicals formulated in a non-phytotoxic solvent mixture which included a surfactant.
# (§2) At the same time, these species were planted in pots containing Redi-Earth® planting medium (Scotts Company, 14111 Scottslawn Road, Marysville, Ohio 43041) comprising spaghnum peat moss, vermiculite, wetting agent and starter nutrients and treated with postemergence applications of the test chemicals formulated in the same manner. Plants ranged in height from 2 to 18 cm (1- to 4-leaf stage). Treated plants and controls were maintained in a controlled growth environment for 14 to 21 d after which time all species were compared to controls and visually evaluated. Plant response ratings, summarized in Table D, are based on a scale of 0 to 100 where 0 is no effect and 100 is complete control. A dash (-) response means no test result.
# [2] = tested on: windgrass (Apera spica-venti)
# Description: as §1, §2
# [3] = tested on: blackgrass (Alopecurus myosuroides)
# Description: as §1, §2
# [4] = tested on: wheat, winter (winter wheat, Triticum aestivum)
# Description: as §1, §2
# [5] = tested on: deadnettle (henbit deadnettle, Lamium amplexicaule)
# Description: as §1, §2
# [6] = tested on: Russian thistle (Salsola kali)
# Description: as §1, §2
# [7] = tested on: wheat, spring (spring wheat, Triticum aestivum)
# Description: as §1, §2
# [8] = tested on: lambsquarters (Chenopodium album)
# Description: as §1, §2
# [9] = tested on: chickweed (common chickweed, Stellaria media)
# Description: as §1, §2
# [10] = tested on: canarygrass (Phalaris minor)
# Description: as §1, §2
# [11] = tested on: foxtail, green (green foxtail, Setaria viridis)
# Description: as §1, §2
# kochia (Kochia scoparia) = tested on: kochia (Kochia scoparia)
# Description: as §1, §2
# [12] = tested on: field violet (Viola arvensis)
# Description: as §1, §2
# [13] = Postemergence, 31 g ai/ha, scale 0 to 100 (0 no effect, 100 complete control)
# [14] = Postemergence, 125 g ai/ha, visual rating on scale 0 (no effect) to 100 (complete control), 14 to 21 d
# [15] = Postemergence, 250 g ai/ha, scale 0 to 100 (0 no effect, 100 complete control)
# [16] = Preemergence, 62 g ai/ha, scale 0 to 100 (0 no effect, 100 complete control)
# [17] = Preemergence, 125 g ai/ha, scale 0 to 100 (0 no effect, 100 complete control)
# [18] = Preemergence, 250 g ai/ha, scale 0 to 100 (0 no effect, 100 complete control)
# [19] = postemergence, 62 g ai/ha, scale 0 to 100, 0 no effect, 100 complete control
smiles,measurement,setting,value
CC(=O)Oc1c(C)nn(C)c(=O)c1-c1c(C)sc2ccc(C)cc12 [Compound 25],"Ryegrass, Italian plant response rating",[1]; [13],75
same,"Plant response rating, Ryegrass, Italian",[1]; [14],85
same,"Plant response rating, Ryegrass, Italian",[1]; [15],90
same,"Plant response rating (scale of 0 to 100), Ryegrass, Italian","[1]; Preemergence, 31 g ai/ha",95
same,"Plant response rating, Ryegrass, Italian",[1]; [16],100
same,"Plant response rating, Ryegrass, Italian",[1]; [17],100
same,"Plant response rating, Ryegrass, Italian",[1]; [18],100
same,"Plant response rating, Ryegrass, Italian",[1]; [19],85
same,Windgrass plant response rating,[2]; [13],70
same,"Plant response rating, Windgrass",[2]; [14],85
same,"Plant response rating, Windgrass",[2]; [15],85
same,"Plant response rating (scale of 0 to 100), Windgrass","[2]; Preemergence, 31 g ai/ha",75
same,"Plant response rating, Windgrass",[2]; [16],85
same,"Plant response rating, Windgrass",[2]; [17],100
same,"Plant response rating, Windgrass",[2]; [18],100
same,"Plant response rating, Windgrass",[2]; [19],75
same,Blackgrass plant response rating,[3]; [13],65
same,"Plant response rating, Blackgrass",[3]; [14],80
same,"Plant response rating, Blackgrass",[3]; [15],80
same,"Plant response rating (scale of 0 to 100), Blackgrass","[3]; Preemergence, 31 g ai/ha",85
same,"Plant response rating, Blackgrass",[3]; [16],90
same,"Plant response rating, Blackgrass",[3]; [17],90
same,Blackgrass plant response rating,[3]; [18],95
same,"Plant response rating, Blackgrass",[3]; [19],75
same,"Wheat, Winter plant response rating",[4]; [13],0
same,"Plant response rating, Wheat, Winter",[4]; [14],5
same,"Plant response rating, Wheat, Winter",[4]; [15],20
same,"Plant response rating (scale of 0 to 100), Wheat, Winter","[4]; Preemergence, 31 g ai/ha",0
same,"Plant response rating, Wheat, Winter",[4]; [16],0
same,"Plant response rating, Wheat, Winter",[4]; [17],0
same,"Plant response rating, Wheat, Winter",[4]; [18],20
same,"Plant response rating, Wheat, Winter",[4]; [19],0
same,Deadnettle plant response rating,[5]; [13],5
same,"Plant response rating, Deadnettle",[5]; [14],20
same,"Plant response rating, Deadnettle",[5]; [15],45
same,"Plant response rating (scale of 0 to 100), Deadnettle","[5]; Preemergence, 31 g ai/ha",0
same,"Plant response rating, Deadnettle",[5]; [16],0
same,"Plant response rating, Deadnettle",[5]; [17],0
same,"Plant response rating, Deadnettle",[5]; [18],50
same,"Plant response rating, Deadnettle",[5]; [19],10
same,Russian Thistle plant response rating,[6]; [13],70
same,"Plant response rating, Russian Thistle",[6]; [14],80
same,"Plant response rating, Russian Thistle",[6]; [15],90
same,"Plant response rating (scale of 0 to 100), Russian Thistle","[6]; Preemergence, 31 g ai/ha",10
same,"Plant response rating, Russian Thistle",[6]; [16],25
same,"Plant response rating, Russian Thistle",[6]; [17],40
same,"Plant response rating, Russian Thistle",[6]; [18],90
same,"Plant response rating, Russian Thistle",[6]; [19],75
same,"Wheat, Spring plant response rating",[7]; [13],0
same,"Plant response rating, Wheat, Spring",[7]; [14],15
same,"Plant response rating, Wheat, Spring",[7]; [15],20
same,"Plant response rating (scale of 0 to 100), Wheat, Spring","[7]; Preemergence, 31 g ai/ha",0
same,"Plant response rating, Wheat, Spring",[7]; [16],0
same,"Plant response rating, Wheat, Spring",[7]; [17],10
same,"Plant response rating, Wheat, Spring",[7]; [18],25
same,"Plant response rating, Wheat, Spring",[7]; [19],0
same,Lambsquarters plant response rating,[8]; [13],90
same,"Plant response rating, Lambsquarters",[8]; [14],90
same,"Plant response rating, Lambsquarters",[8]; [15],95
same,"Plant response rating (scale of 0 to 100), Lambsquarters","[8]; Preemergence, 31 g ai/ha",80
same,"Plant response rating, Lambsquarters",[8]; [16],95
same,"Plant response rating, Lambsquarters",[8]; [17],98
same,"Plant response rating, Lambsquarters",[8]; [18],100
same,"Plant response rating, Lambsquarters",[8]; [19],90
same,Chickweed plant response rating,[9]; [13],98
same,"Plant response rating, Chickweed",[9]; [14],100
same,"Plant response rating, Chickweed",[9]; [15],100
same,"Plant response rating (scale of 0 to 100), Chickweed","[9]; Preemergence, 31 g ai/ha",95
same,"Plant response rating, Chickweed",[9]; [16],100
same,"Plant response rating, Chickweed",[9]; [17],100
same,"Plant response rating, Chickweed",[9]; [18],100
same,"Plant response rating, Chickweed",[9]; [19],98
same,Canarygrass plant response rating,[10]; [13],70
same,"Plant response rating, Canarygrass",[10]; [14],80
same,"Plant response rating, Canarygrass",[10]; [15],85
same,"Plant response rating (scale of 0 to 100), Canarygrass","[10]; Preemergence, 31 g ai/ha",80
same,"Plant response rating, Canarygrass",[10]; [16],80
same,"Plant response rating, Canarygrass",[10]; [17],95
same,"Plant response rating, Canarygrass",[10]; [18],100
same,"Plant response rating, Canarygrass",[10]; [19],80
same,"Foxtail, Green plant response rating",[11]; [13],60
same,"Plant response rating, Foxtail, Green",[11]; [14],70
same,"Plant response rating, Foxtail, Green",[11]; [15],75
same,"Plant response rating (scale of 0 to 100), Foxtail, Green","[11]; Preemergence, 31 g ai/ha",35
same,"Plant response rating, Foxtail, Green",[11]; [16],90
same,"Plant response rating, Foxtail, Green",[11]; [17],95
same,"Plant response rating, Foxtail, Green",[11]; [18],100
same,"Plant response rating, Foxtail, Green",[11]; [19],65
same,Kochia plant response rating,kochia (Kochia scoparia); [13],90
same,"Plant response rating, Kochia",kochia (Kochia scoparia); [14],100
same,"Plant response rating, Kochia",kochia (Kochia scoparia); [15],100
same,"Plant response rating (scale of 0 to 100), Kochia","kochia (Kochia scoparia); Preemergence, 31 g ai/ha",0
same,"Plant response rating, Kochia",kochia (Kochia scoparia); [16],10
same,"Plant response rating, Kochia",kochia (Kochia scoparia); [17],40
same,"Plant response rating, Kochia",kochia (Kochia scoparia); [18],100
same,"Plant response rating, Kochia",kochia (Kochia scoparia); [19],95
same,Field Violet plant response rating,[12]; [13],65
same,"Plant response rating, Field Violet",[12]; [14],85
same,"Plant response rating, Field Violet",[12]; [15],95
same,"Plant response rating (scale of 0 to 100), Field Violet","[12]; Preemergence, 31 g ai/ha",90
same,"Plant response rating, Field Violet",[12]; [16],100
same,"Plant response rating, Field Violet",[12]; [17],100
same,"Plant response rating, Field Violet",[12]; [18],100
same,"Plant response rating, Field Violet",[12]; [19],75
